According to patent publication US11925667B2, “Engineered therapeutic probiotic system and method” (priority 2018, dated 2024):
Where two headings read alike, the source gives them in different places.

What was measured:
[1] = system: AGS human gastric adenocarcinoma cells; assay: Cell toxicity assay (MTT), AGS; format: cell-based; conditions: for Complete inhibition: AGS gastric; for GI50: Homo sapiens, read-out: GI 50 value
From the text: (§1) Cell culture and toxicity assay. While HCT116 human colorectal carcinoma cells (ATCC, Manassas, USA), LoVo human colorectal adenocarcinoma cells (ATCC), AGS human gastric adenocarcinoma cells (ATCC), MCF7 human breast adenocarcinoma cells (ATCC), human esophageal smooth muscle primary cells (SMCs) (Cell Biologics, Chicago, USA) and CT26 mouse colorectal carcinoma cells (ATCC) are used according to the claimed invention, other illustrative cell lines may similarly be utilized. Cells are cleared of mycoplasma contamination prior to use using Mycoalert™ PLUS mycoplasma detection kit (Lonza). HCT116 cells are cultured in McCoy's 5A medium, LoVo and AGS cells in Ham's F12 medium, MCF7 cells in DMEM medium, CT26 cells in RPMI medium, and SMCs in the specific medium kit purchased from Cell Biologics. In this illustrative embodiment, unless otherwise stated all cell culture media are purchased from Lonza (Walkersville, USA) and are supplemented with antibiotics (penicillin/streptomycin) and 5% fetal bovine serum (FBS, v/v). SMCs are prepared according to the manufacturer's protocol. All cell cultures are maintained at 37° C. and 5% CO2. Cells are seeded in 96-well plates or on glass coverslips in 6-well plates at a density of 5×10^5/well and are cultured at 37° C. and 5% CO2 a day before protein-binding studies or co-culturing with transformed Nissle cells.
(§2) Cellular viability is measured at 3 hours, 24 hours and 72 hours post-treatment using the MTT assay (Sigma, St. Louis, USA). The inhibitory activity of myrosinase-converted AITC is performed by incubating cancer cells grown to 60% confluency with 0.1 μM of purified secreted I1 myrosinase with 0˜10 mM sinigrin at 37° C. and 5% CO2 and was sampled at 3 hours, 24 hours and 72 hours post-treatment. The MTT readout is fitted to a dose-response curve to determine the GI50 value (Eq. 2). Absorbance (570 nm)=Bottom+(Top−Bottom)/(1+10^(([Inhibitor]−Log 10 GI50))) (Eq. 2) HlpA binding assay. The HlpA gene sequence is optimized for E. coli expression, and the gene is cloned into a pET28b vector with an N-terminal GFP. GFP-HlpA and GFP are expressed using similar purification protocols, described above. […] Treated and adherent cells are washed with sterile PBS twice before staining with DAPI. The GFP/DAPI ratio is used to evaluate the binding ratio of protein binding per cell (Eq. 3). […] The cancer 394 cells are washed twice with 1×PBS and measured for DAPI and RFP emission. The fluorescence emission is compared on the linear standard curve of stained cells against the average fluorescence emission to determine the binding ratio of E. coli to cancer cells.

[2] = system: various colorectal, gastric and breast cancer cell lines; assay: Growth inhibition (MTT), summary over cancer cell lines; format: cell-based; conditions: read-out: 50% growth inhibition (GI50) values
From the text: (§3) Cell culture and toxicity assay. While HCT116 human colorectal carcinoma cells (ATCC, Manassas, USA), LoVo human colorectal adenocarcinoma cells (ATCC), AGS human gastric adenocarcinoma cells (ATCC), MCF7 human breast adenocarcinoma cells (ATCC), human esophageal smooth muscle primary cells (SMCs) (Cell Biologics, Chicago, USA) and CT26 mouse colorectal carcinoma cells (ATCC) are used according to the claimed invention, other illustrative cell lines may similarly be utilized. Cells are cleared of mycoplasma contamination prior to use using Mycoalert™ PLUS mycoplasma detection kit (Lonza). HCT116 cells are cultured in McCoy's 5A medium, LoVo and AGS cells in Ham's F12 medium, MCF7 cells in DMEM medium, CT26 cells in RPMI medium, and SMCs in the specific medium kit purchased from Cell Biologics. […]
(§4) The MTT readout is fitted to a dose-response curve to determine the GI50 value (Eq. 2). Absorbance (570 nm)=Bottom+(Top−Bottom)/(1+10^(([Inhibitor]−Log 10 GI50))) (Eq. 2) HlpA binding assay. […] The cancer 394 cells are washed twice with 1×PBS and measured for DAPI and RFP emission. The fluorescence emission is compared on the linear standard curve of stained cells against the average fluorescence emission to determine the binding ratio of E. coli to cancer cells.

[3] = system: human esophageal smooth muscle primary cells (SMCs); assay: Cell toxicity assay (MTT), SMC; format: cell-based; conditions: for GI50: Homo sapiens, read-out: GI 50 value
From the text: as §1, with “CO2.” for “CO2. Cells are seeded in 96-well plates or on glass coverslips in 6-well plates at a density of 5×10^5/well and are cultured at 37° C. and 5% CO2 a day before protein-binding studies or co-culturing with transformed Nissle cells.”
The MTT readout is fitted to a dose-response curve to determine the GI50 value (Eq. 2). Absorbance (570 nm)=Bottom+(Top−Bottom)/(1+10^(([Inhibitor]−Log 10 GI50))) (Eq. 2) HlpA binding assay. The HlpA gene sequence is optimized for E. coli expression, and the gene is cloned into a pET28b vector with an N-terminal GFP. GFP-HlpA and GFP are expressed using similar purification protocols, described above. […] Treated and adherent cells are washed with sterile PBS twice before staining with DAPI. The GFP/DAPI ratio is used to evaluate the binding ratio of protein binding per cell (Eq. 3). Ratio (GFP/DAPI)=Bottom+(Top−Bottom)/(1+10^(([Ligand]−Log 10 KD))) (Eq. 3) Similarly, N-terminal INP tagged to HlpA are cloned into the pBbE8K vector and co390 transformed with pBbE8a-RFP into E. coli Nissle. E. coli cells are cultured in LB supplemented with 50 mg/L ampicillin and 25 mg/L kanamycin and are induced with 1% arabinose. […] The cancer 394 cells are washed twice with 1×PBS and measured for DAPI and RFP emission. The fluorescence emission is compared on the linear standard curve of stained cells against the average fluorescence emission to determine the binding ratio of E. coli to cancer cells.

[4] = system: various colorectal, gastric and breast cancer cell lines; assay: Growth inhibition in cancer cell lines; format: cell-based
From the text: as §3
as §4, with “Cellular viability is measured at 3 hours, 24 hours and 72 hours post-treatment using the MTT assay (Sigma, St. Louis, USA). […] The MTT” for “The MTT”

[5] = system: LoVo human colorectal adenocarcinoma cells; assay: Cell toxicity assay (MTT), LoVo; format: cell-based; conditions: for GI50: Homo sapiens, LoVo, read-out: GI 50 value; for Complete inhibition: LoVo colorectal
From the text: as §1, §2

[6] = system: MCF7 human breast adenocarcinoma cells; assay: Cell toxicity assay (MTT), MCF7; format: cell-based; conditions: for GI50: Homo sapiens, MCF7, read-out: GI 50 value; for Complete inhibition: MCF7 breast
From the text: as §1, §2

[7] = system: HCT116 human colorectal carcinoma cells; assay: Cell toxicity assay (MTT), HCT116; format: cell-based; conditions: for Complete inhibition: HCT116 colorectal; for GI50: Homo sapiens, HCT-116, read-out: GI 50 value
From the text: as §1, §2

[8] = system: CT26 mouse colorectal carcinoma cells; assay: Cell toxicity assay (MTT), CT26; format: cell-based; conditions: for Complete inhibition: CT26 colorectal; for GI50: Mus musculus, CT26, read-out: GI 50 value
From the text: as §1, §2

[9] = system: primary stem cells or other non-cancer cell lines; conditions: in words; cited from earlier work
[10] = system: HCT116 colorectal carcinoma cells; assay: Growth inhibition assay (MTT), HCT116; format: cell-based, human
From the text: as §3
as §4, with “Cellular viability is measured at 3 hours, 24 hours and 72 hours post-treatment using the MTT assay (Sigma, St. Louis, USA). […] The MTT” for “The MTT”, “cancer cells. […]” for “cancer cells.”

[11] = system: CT26 colorectal carcinoma cells; assay: Growth inhibition assay (MTT), CT26; format: cell-based, mouse
From the text: as §3
as §4, with “Cellular viability is measured at 3 hours, 24 hours and 72 hours post-treatment using the MTT assay (Sigma, St. Louis, USA). […] The MTT” for “The MTT”, “cancer cells. […]” for “cancer cells.”

[12] = system: MCF7 breast adenocarcinoma cells; assay: Growth inhibition assay (MTT), MCF7; format: cell-based, human
From the text: as §3
as §4, with “Cellular viability is measured at 3 hours, 24 hours and 72 hours post-treatment using the MTT assay (Sigma, St. Louis, USA). […] The MTT” for “The MTT”, “cancer cells. […]” for “cancer cells.”

[13] = system: LoVo colorectal adenocarcinoma cells; assay: Growth inhibition assay (MTT), LoVo; format: cell-based, human
From the text: as §3
as §4, with “Cellular viability is measured at 3 hours, 24 hours and 72 hours post-treatment using the MTT assay (Sigma, St. Louis, USA). […] The MTT” for “The MTT”, “cancer cells. […]” for “cancer cells.”

[14] = system: SMC (esophageal smooth muscle primary cells); assay: Growth inhibition assay (MTT), SMC; format: cell-based, human; conditions: purified YebF-I1 fusion protein and sinigrin, in words
From the text: as §3
as §4, with “Cellular viability is measured at 3 hours, 24 hours and 72 hours post-treatment using the MTT assay (Sigma, St. Louis, USA). […] The MTT” for “The MTT”, “cancer cells. […]” for “cancer cells.”

[15] = system: AGS gastric adenocarcinoma cells; assay: Growth inhibition assay (MTT), AGS; format: cell-based, human
From the text: as §3
as §4, with “Cellular viability is measured at 3 hours, 24 hours and 72 hours post-treatment using the MTT assay (Sigma, St. Louis, USA). […] The MTT” for “The MTT”, “cancer cells. […]” for “cancer cells.”

[16] = target: CT26; assay: HlpA binding assay (GFP/DAPI ratio), CT26; conditions: CT26 murine colorectal cell line
Method: as §2

[17] = system: gastric (AGS) cancer cell line; assay: HlpA binding assay (GFP/DAPI ratio), AGS; set-up: species or system human
Method: as §2

[18] = target: HCT116; assay: HlpA binding assay (GFP/DAPI ratio), HCT116; conditions: HCT116 human colorectal cell line
Method: as §2

[19] = system: breast (MCF7) cancer cell line; assay: HlpA binding assay (GFP/DAPI ratio), MCF7; set-up: species or system human
Method: as §2

[20] = target: LoVo; assay: HlpA binding assay (GFP/DAPI ratio), LoVo; conditions: LoVo human colorectal cell line
Method: as §2

[21] = system: smooth muscle cells; assay: HlpA binding assay (GFP/DAPI ratio), smooth muscle cells; set-up: species or system human
Method: as §2

[22] = 0.1 μM purified secreted I1 myrosinase with sinigrin
[23] = Homo sapiens, 0.1 μM purified secreted I1 myrosinase with 0~10 mM sinigrin, read-out: GI 50 value

Work on `C=CCN=C=S` [AITC, allyl isothiocyanate] yielded a Complete inhibition [1] of less than 24 h, a GI50 [1] of 18 µM and a GI50 [2] of roughly 100 µM. The GI50 [3] was 589 µM, the “inhibition of primary smooth muscle cells” value [3] was “does not inhibit” and the “Inhibition of cancer cell growth compared with L-sulforaphane” value ([4]; in words) was “poorer efficacy compared with L-sulforaphane”. The GI50 [5] was 74 µM, the Complete inhibition [5] was less than 24 h and the GI50 [6] was 104 µM. The Complete inhibition [6] was less than 3 h, the Complete inhibition [7] was less than 24 h and the GI50 [7] was 116 µM. It also gave a Complete inhibition [8] of less than 24 h and a GI50 [8] of 15 µM.
Work on `C[S@@+]([O-])CCCCN=C=S` [L-sulforaphane] yielded a Complete inhibition [1] of less than 24 h, a GI50 [1] of 15 µM and a GI50 ([2]; various colorectal, gastric and breast cancer cell lines) of less than 100 µM. For the same compound, the GI50 ([3]; SMC primary cells, MTT) was 375 µM, the “inhibition of primary smooth muscle cells” value [3] was “does not inhibit” and the “Effect on primary stem cells or other non-cancer cell lines” value [9] was “does not affect”. For the same compound, the “Growth inhibition observed within” value ([4]; upon adding L-sulforaphane) was no more than 24 h, the GI50 [5] was 23 µM and the Complete inhibition [5] was less than 24 h. For the same compound, the GI50 [6] was 29 µM, the Complete inhibition [6] was less than 3 h and the Complete inhibition [7] was less than 24 h. For the same compound, the GI50 [7] was 30 µM, the Complete inhibition [8] was less than 24 h and the GI50 [8] was 45 µM.
For `C=CCN=C=S` [YebF-I1-converted AITC, allyl isothiocyanate], the Complete inhibition [10, 22] was less than 24 h, the GI50 ([10]; Homo sapiens, HCT-116, 0.1 μM purified secreted I1 myrosinase with 0~10 mM sinigrin, read-out: GI 50 value) was 155 µM and the Complete inhibition [11, 22] was less than 24 h. The GI50 ([11]; Mus musculus, 0.1 μM purified secreted I1 myrosinase with 0~10 mM sinigrin, read-out: GI 50 value) was 46 µM, the Complete inhibition [12, 22] was less than 24 h and the GI50 [12, 23] was 139 µM. For the same compound, the Complete inhibition [13, 22] was less than 21 h, the GI50 [13, 23] was 232 µM and the “Inhibition of primary smooth muscle cell line” value [14] was “no inhibition”. For the same compound, the Complete inhibition [15, 22] was less than 24 h and the GI50 [15, 23] was 26 µM.
In the case of “GFP-HlpA: purified N-terminal GFP-tagged Histone-like protein A (HlpA) from Streptococcus gallolyticus”, the binding affinity [16] is reported as “sub-micromolar”, the binding [17] is reported as “No binding” and the binding affinity [18] is reported as “sub-micromolar”. The binding [19] was “No binding”, the binding affinity [20] was “sub-micromolar” and the “weaker binding affinity relative to colorectal cell lines” value [21] was 6 fold.
